Source: patent publication US20220331274A1, “METHODS OF TREATING CANCER” (Inspirna, Inc., priority 2019, published 2022)

What was measured:
[1] = cited from earlier work
Xenograft A549 = test: Example 2: Xenograft A549 mice, tumor volume; assay type: in vivo; conditions: Group 02: 2 mg/kg cisplatin, corn oil
Experimental: Protocol: Five groups of Xenograft A549 mice were treated and tumor volume tracked for twenty-two days. Group 01 was administered 0.9% Saline, 0 mg/kg cisplatin, Corn Oil, and 0 mg/kg 2-[3-[(3R)-3-[[2-chloro-3-(trifluoromethyl)phenyl]methyl-(2,2-diphenylethyl)amino]butoxy]phenyl]acetic acid; Group 02 was administered 2 mg/kg Cisplatin, Corn Oil, and 0 mg/kg 2-[3-[(3R)-3-[[2-chloro-3-(trifluoromethyl)phenyl]methyl-(2,2-diphenylethyl)amino]butoxy]phenyl]acetic acid; Group 03 was administered 0.9% Saline, 0 mg/kg cisplatin, and 50 mg/kg 2-[3-[(3R)-3-[[2-chloro-3-(trifluoromethyl)phenyl]methyl-(2,2-diphenylethyl)amino]butoxy]phenyl]acetic acid; Group 04 was administered 2 mg/kg cisplatin and 50 mg/kg 2-[3-[(3R)-3-[[2-chloro-3-(trifluoromethyl)phenyl]methyl-(2,2-diphenylethyl)amino]butoxy]phenyl]acetic acid twice per day daily for the entire treatment period; and Group 05 was administered 2 mg/kg cisplatin and 50 mg/kg 2-[3-[(3R)-3-[[2-chloro-3-(trifluoromethyl)phenyl]methyl-(2,2-diphenylethyl)amino]butoxy]phenyl]acetic acid twice per day for five continuous days followed by two days without for the entire treatment period.

[2] = cited from earlier work; remark: listed apart in the source
[3] = cited from earlier work; remark: listed apart in the source
mouse melanoma = test: syngeneic mouse melanoma model; assay type: in vivo
[4] = test system: BRAF wild-type human melanoma xenograft; test: BRAF wild-type human melanoma xenograft model; assay type: in vivo; conditions: 100 mg/kg in combination with dacarbazine

nivolumab: fully human immunoglobulin (Ig) G4 monoclonal antibody directed against programmed death-1 (PD-1)
hyperlipidemia in treated subjects ([1]; in vivo): has also been reported | immune-mediated hepatitis ([1]; in vivo): immune-mediated hepatitis has been observed

N.N.[Cl][Pt][Cl] [cisplatin, reference compound]
mean tumor volume (Xenograft A549; day 0, in mm³ (unit assumed)): 86.05 | mean tumor volume (Xenograft A549; day 3): 116.20 | mean tumor volume (Xenograft A549; day 6): 196.48 | mean tumor volume (Xenograft A549; day 9, in mm³ (unit assumed)): 276.41 | mean tumor volume (Xenograft A549; day 12, in mm³ (unit assumed)): 450.58 | mean tumor volume (Xenograft A549; day 15, in mm³ (unit assumed)): 598.84 | mean tumor volume (Xenograft A549; day 19): 1239.53 | mean tumor volume (Xenograft A549; day 22): 1521.86

N.N.O=C([O-])C1(C(=O)[O-])CCC1.[Pt+2] [Carboplatin, platinum, diammine[1,1-cyclobutanedicarboxylato(2-)-O,O′]-, (SP-4-2)]
solubility in ethanol, acetone, and dimethylacetamide ([2]; ethanol, acetone, dimethylacetamide): virtually insoluble | solubility in water ([2]; water): approximately 14 mg/mL | pH of a 1% solution [3]: 5-7

Cl.O=C(O)Cc1cccc(OCCCN(Cc2cccc(C(F)(F)F)c2Cl)CC(c2ccccc2)c2ccccc2)c1 [GW3965, 3-[3-[N-(2-Chloro-3-trifluoromethylbenzyl)-(2,2-diphenylethyl)amino]propyloxy]phenylacetic acid hydrochloride, reference compound]
tumor suppressive efficacy (mouse melanoma; 100 mg/kg in combination with anti-CTLA-4): additive tumor suppressive efficacy | anti-tumor efficacy (mouse melanoma; 100 mg/kg in combination with dacarbazine, syngeneic melanoma animal model): Additive anti-tumor efficacy | anti-tumor efficacy [4]: Additive anti-tumor efficacy

ipilimumab: recombinant human IgG1 kappa monoclonal antibody that binds to CTLA-4
immune-mediated hepatitis ([1]; in vivo): immune-mediated hepatitis has been observed

CC(=O)O[C@@]12CO[C@@H]1C[C@H](O)[C@@]1(C)C(=O)[C@H](O)C3=C(C)[C@@H](OC(=O)[C@H](O)[C@@H](NC(=O)OC(C)(C)C)c4ccccc4)C[C@@](O)([C@@H](OC(=O)c4ccccc4)[C@H]21)C3(C)C [docetaxel, (2R,3S)—N-carboxy-3-phenylisoserine,N-tert-butyl ester, 13-ester with 5b-20-epoxy-1,2a,4,7b, 10b, 13a-hexahydroxytax-11-en-9-one 4-acetate 2-benzoate, trihydrate]
hepatotoxicity ([1]; treatment with the partner drug): hepatotoxicity has been observed
